Test results taken from patent publication US6632799B2, “Injectable ready-to-use solutions containing an antitumor anthracycline glycoside” (Pharmacia & Upjohn Company, priority 1985, dated 2003).
Counter-ions that a name gives are not always drawn.

Assay: pH-stability profile at 55° C. of doxorubicin.HCl solutions in sterile water, 5% dextrose, 0.9% saline
Type: physicochemical

- pH range of maximum stability (2 mg/ml, 55° C., all three media, ±0.2): 3.0-3.5
- Kobs × 10^3 (0.9% saline, Acetate pH 4.0, 55° C.): 215.7 1/days
- Kobs × 10^3 (0.9% saline, Acetate pH 5.0, 55° C.): 301.2 1/days
- Kobs × 10^3 (0.9% saline, Acetate pH 5.5, 55° C.): 430.3 1/days
- Kobs × 10^3 (0.9% saline, Formate pH 3.5, 55° C.): 148.1 1/days
- Kobs × 10^3 (0.9% saline, Glycine-HCl pH 2.0, 55° C.): 362.4 1/days
- Kobs × 10^3 (0.9% saline, Glycine-HCl pH 2.5, 55° C.): 276.5 1/days
- Kobs × 10^3 (0.9% saline, Glycine-HCl pH 3.0, 55° C.): 133.2 1/days
- Doxorubicin.HCl % stability (0.9% saline, pH 2.5 buffer, 55° C., 0 hours): 100.0%
- Doxorubicin.HCl % stability (0.9% saline, pH 2.5 buffer, 55° C., 16 hours): 85.8%
- Doxorubicin.HCl % stability (0.9% saline, pH 2.5 buffer, 55° C., 24 hours): 82.3%
- Doxorubicin.HCl % stability (0.9% saline, pH 2.5 buffer, 55° C., 34 hours): 70.3%
- Doxorubicin.HCl % stability (0.9% saline, pH 2.5 buffer, 55° C., 48 hours): 58.1%
- Doxorubicin.HCl % stability (0.9% saline, pH 3.0 buffer, 55° C., 0 hours): 100.0%
- Doxorubicin.HCl % stability (0.9% saline, pH 3.0 buffer, 55° C., 16 hours): 91.2%
- Doxorubicin.HCl % stability (0.9% saline, pH 3.0 buffer, 55° C., 24 hours): 88.8%
- Doxorubicin.HCl % stability (0.9% saline, pH 3.0 buffer, 55° C., 48 hours): 78.8%
- Doxorubicin.HCl % stability (0.9% saline, pH 3.0 buffer, 55° C., 72 hours): 69.0%
- Doxorubicin.HCl % stability (0.9% saline, pH 3.0 buffer, 55° C., 96 hours): 60.4%
- Doxorubicin.HCl % stability (0.9% saline, pH 3.0 buffer, 55° C., 120 hours): 50.3%
- Doxorubicin.HCl % stability (0.9% saline, pH 3.5 buffer, 55° C., 0 hours): 100.0%
- Doxorubicin.HCl % stability (0.9% saline, pH 3.5 buffer, 55° C., 16 hours): 91.4%
- Doxorubicin.HCl % stability (0.9% saline, pH 3.5 buffer, 55° C., 24 hours): 87.2%
- Doxorubicin.HCl % stability (0.9% saline, pH 3.5 buffer, 55° C., 48 hours): 77.3%
- Doxorubicin.HCl % stability (0.9% saline, pH 3.5 buffer, 55° C., 96 hours): 58.9%
- Doxorubicin.HCl % stability (0.9% saline, pH 3.5 buffer, 55° C., 120 hours): 46.0%
- Kobs × 10^3 (5% dextrose, Acetate pH 4.0, 55° C.): 209.7 1/days
- Kobs × 10^3 (5% dextrose, Acetate pH 5.0, 55° C.): 273.1 1/days
- Kobs × 10^3 (5% dextrose, Acetate pH 5.5, 55° C.): 453.7 1/days
- Kobs × 10^3 (5% dextrose, Formate pH 3.5, 55° C.): 132.0 1/days
- Kobs × 10^3 (5% dextrose, Glycine-HCl pH 2.0, 55° C.): 323.8 1/days
- Kobs × 10^3 (5% dextrose, Glycine-HCl pH 2.5, 55° C.): 138.7 1/days
- Kobs × 10^3 (5% dextrose, Glycine-HCl pH 3.0, 55° C.): 100.5 1/days
- Doxorubicin.HCl % stability (5% dextrose, pH 2.0 buffer, 55° C., 0 hours): 100.0%
- Doxorubicin.HCl % stability (5% dextrose, pH 2.0 buffer, 55° C., 8 hours): 92.8%
- Doxorubicin.HCl % stability (5% dextrose, pH 2.0 buffer, 55° C., 16 hours): 84.4%
- Doxorubicin.HCl % stability (5% dextrose, pH 2.0 buffer, 55° C., 24 hours): 75.9%
- Doxorubicin.HCl % stability (5% dextrose, pH 2.0 buffer, 55° C., 34 hours): 68.3%
- Doxorubicin.HCl % stability (5% dextrose, pH 2.0 buffer, 55° C., 48 hours): 54.1%
- Doxorubicin.HCl % stability (5% dextrose, pH 2.0 buffer, 55° C., 72 hours): 38.4%
- Doxorubicin.HCl % stability (5% dextrose, pH 2.5 buffer, 55° C., 0 hours): 100.0%
- Doxorubicin.HCl % stability (5% dextrose, pH 2.5 buffer, 55° C., 8 hours): 96.4%
- Doxorubicin.HCl % stability (5% dextrose, pH 2.5 buffer, 55° C., 16 hours): 92.6%
- Doxorubicin.HCl % stability (5% dextrose, pH 2.5 buffer, 55° C., 24 hours): 89.5%
- Doxorubicin.HCl % stability (5% dextrose, pH 2.5 buffer, 55° C., 34 hours): 85.5%
- Doxorubicin.HCl % stability (5% dextrose, pH 2.5 buffer, 55° C., 48 hours): 76.2%
- Doxorubicin.HCl % stability (5% dextrose, pH 2.5 buffer, 55° C., 72 hours): 66.3%
- Doxorubicin.HCl % stability (5% dextrose, pH 3.0 buffer, 55° C., 0 hours): 100.0%
- Doxorubicin.HCl % stability (5% dextrose, pH 3.0 buffer, 55° C., 16 hours): 96.6%
- Doxorubicin.HCl % stability (5% dextrose, pH 3.0 buffer, 55° C., 24 hours): 92.7%
- Doxorubicin.HCl % stability (5% dextrose, pH 3.0 buffer, 55° C., 48 hours): 83.3%
- Doxorubicin.HCl % stability (5% dextrose, pH 3.0 buffer, 55° C., 72 hours): 76.4%
- Doxorubicin.HCl % stability (5% dextrose, pH 3.0 buffer, 55° C., 96 hours): 68.0%
- Doxorubicin.HCl % stability (5% dextrose, pH 3.0 buffer, 55° C., 120 hours): 61.1%
- Doxorubicin.HCl % stability (5% dextrose, pH 3.5 buffer, 55° C., 0 hours): 100.0%
- Doxorubicin.HCl % stability (5% dextrose, pH 3.5 buffer, 55° C., 16 hours): 95.7%
- Doxorubicin.HCl % stability (5% dextrose, pH 3.5 buffer, 55° C., 24 hours): 93.7%
- Doxorubicin.HCl % stability (5% dextrose, pH 3.5 buffer, 55° C., 48 hours): 81.8%
- Doxorubicin.HCl % stability (5% dextrose, pH 3.5 buffer, 55° C., 72 hours): 66.8%
- Doxorubicin.HCl % stability (5% dextrose, pH 3.5 buffer, 55° C., 96 hours): 61.6%
- Doxorubicin.HCl % stability (5% dextrose, pH 4.0 buffer, 55° C., 0 hours): 100.0%
- Doxorubicin.HCl % stability (5% dextrose, pH 4.0 buffer, 55° C., 8 hours): 95.5%
- Doxorubicin.HCl % stability (5% dextrose, pH 4.0 buffer, 55° C., 16 hours): 85.6%
- Doxorubicin.HCl % stability (5% dextrose, pH 4.0 buffer, 55° C., 48 hours): 65.5%
- Doxorubicin.HCl % stability (5% dextrose, pH 4.0 buffer, 55° C., 72 hours): 53.9%
- Doxorubicin.HCl % stability (5% dextrose, pH 5.0 buffer, 55° C., 0 hours): 100.0%
- Doxorubicin.HCl % stability (5% dextrose, pH 5.0 buffer, 55° C., 8 hours): 94.7%
- Doxorubicin.HCl % stability (5% dextrose, pH 5.0 buffer, 55° C., 16 hours): 83.2%
- Doxorubicin.HCl % stability (5% dextrose, pH 5.0 buffer, 55° C., 24 hours): 79.9%
- Doxorubicin.HCl % stability (5% dextrose, pH 5.0 buffer, 55° C., 34 hours): 70.4%
- Doxorubicin.HCl % stability (5% dextrose, pH 5.0 buffer, 55° C., 48 hours): 57.8%
- Doxorubicin.HCl % stability (5% dextrose, pH 5.5 buffer, 55° C., 0 hours): 100.0%
- Doxorubicin.HCl % stability (5% dextrose, pH 5.5 buffer, 55° C., 8 hours): 92.5%
- Doxorubicin.HCl % stability (5% dextrose, pH 5.5 buffer, 55° C., 16 hours): 73.8%
- Doxorubicin.HCl % stability (5% dextrose, pH 5.5 buffer, 55° C., 24 hours): 62.6%
- Doxorubicin.HCl % stability (5% dextrose, pH 5.5 buffer, 55° C., 34 hours): 54.8%
- Kobs × 10^3 (sterile water, Acetate pH 4.0, 55° C.): 269.8 1/days
- Kobs × 10^3 (sterile water, Acetate pH 5.0, 55° C.): 322.6 1/days
- Kobs × 10^3 (sterile water, Acetate pH 5.5, 55° C.): 415.4 1/days
- Kobs × 10^3 (sterile water, Formate pH 3.5, 55° C.): 96.7 1/days
- Kobs × 10^3 (sterile water, Glycine-HCl pH 2.0, 55° C.): 309.5 1/days
- Kobs × 10^3 (sterile water, Glycine-HCl pH 2.5, 55° C.): 138.3 1/days
- Kobs × 10^3 (sterile water, Glycine-HCl pH 3.0, 55° C.): 93.1 1/days
- Doxorubicin.HCl % stability (sterile water, pH 2.0 buffer, 55° C., 0 hours): 100.0%
- Doxorubicin.HCl % stability (sterile water, pH 2.0 buffer, 55° C., 8 hours): 93.6%
- Doxorubicin.HCl % stability (sterile water, pH 2.0 buffer, 55° C., 16 hours): 82.6%
- Doxorubicin.HCl % stability (sterile water, pH 2.0 buffer, 55° C., 24 hours): 76.9%
- Doxorubicin.HCl % stability (sterile water, pH 2.0 buffer, 55° C., 48 hours): 56.6%
- Doxorubicin.HCl % stability (sterile water, pH 2.0 buffer, 55° C., 72 hours): 39.6%
- Doxorubicin.HCl % stability (sterile water, pH 2.5 buffer, 55° C., 0 hours): 100.0%
- Doxorubicin.HCl % stability (sterile water, pH 2.5 buffer, 55° C., 8 hours): 96.7%
- Doxorubicin.HCl % stability (sterile water, pH 2.5 buffer, 55° C., 16 hours): 92.1%
- Doxorubicin.HCl % stability (sterile water, pH 2.5 buffer, 55° C., 24 hours): 86.2%
- Doxorubicin.HCl % stability (sterile water, pH 2.5 buffer, 55° C., 48 hours): 78.2%
- Doxorubicin.HCl % stability (sterile water, pH 3.0 buffer, 55° C., 0 hours): 100.0%
- Doxorubicin.HCl % stability (sterile water, pH 3.0 buffer, 55° C., 8 hours): 97.8%
- Doxorubicin.HCl % stability (sterile water, pH 3.0 buffer, 55° C., 16 hours): 93.9%
- Doxorubicin.HCl % stability (sterile water, pH 3.0 buffer, 55° C., 24 hours): 91.4%
- Doxorubicin.HCl % stability (sterile water, pH 3.0 buffer, 55° C., 48 hours): 84.7%
- Doxorubicin.HCl % stability (sterile water, pH 3.0 buffer, 55° C., 72 hours): 76.1%
- Doxorubicin.HCl % stability (sterile water, pH 3.0 buffer, 55° C., 120 hours): 62.8%
- Doxorubicin.HCl % stability (sterile water, pH 3.5 buffer, 55° C., 0 hours): 100.0%
- Doxorubicin.HCl % stability (sterile water, pH 3.5 buffer, 55° C., 8 hours): 95.8%
- Doxorubicin.HCl % stability (sterile water, pH 3.5 buffer, 55° C., 16 hours): 92.7%
- Doxorubicin.HCl % stability (sterile water, pH 3.5 buffer, 55° C., 24 hours): 90.4%
- Doxorubicin.HCl % stability (sterile water, pH 3.5 buffer, 55° C., 48 hours): 81.1%
- Doxorubicin.HCl % stability (sterile water, pH 3.5 buffer, 55° C., 72 hours): 75.6%
- Doxorubicin.HCl % stability (sterile water, pH 3.5 buffer, 55° C., 120 hours): 61.0%
- Doxorubicin.HCl % stability (sterile water, pH 4.0 buffer, 55° C., 0 hours): 100.0%
- Doxorubicin.HCl % stability (sterile water, pH 4.0 buffer, 55° C., 8 hours): 88.0%
- Doxorubicin.HCl % stability (sterile water, pH 4.0 buffer, 55° C., 16 hours): 82.7%
- Doxorubicin.HCl % stability (sterile water, pH 4.0 buffer, 55° C., 24 hours): 76.8%
- Doxorubicin.HCl % stability (sterile water, pH 4.0 buffer, 55° C., 48 hours): 57.4%
- Doxorubicin.HCl % stability (sterile water, pH 5.0 buffer, 55° C., 0 hours): 100.0
- Doxorubicin.HCl % stability (sterile water, pH 5.0 buffer, 55° C., 8 hours): 90.3
- Doxorubicin.HCl % stability (sterile water, pH 5.0 buffer, 55° C., 16 hours): 83.6
- Doxorubicin.HCl % stability (sterile water, pH 5.0 buffer, 55° C., 24 hours): 74.9
- Doxorubicin.HCl % stability (sterile water, pH 5.5 buffer, 55° C., 0 hours): 100.0%
- Doxorubicin.HCl % stability (sterile water, pH 5.5 buffer, 55° C., 8 hours): 88.3%
- Doxorubicin.HCl % stability (sterile water, pH 5.5 buffer, 55° C., 16 hours): 69.7%
- Doxorubicin.HCl % stability (sterile water, pH 5.5 buffer, 55° C., 24 hours): 60.0%
- Doxorubicin.HCl % stability (sterile water, pH 5.5 buffer, 55° C., 48 hours): 44.1%
Compound: COc1cccc2c1C(=O)c1c(O)c3c(c(O)c1C2=O)C[C@@](O)(C(=O)CO)C[C@@H]3O[C@H]1C[C@H](N)[C@H](O)[C@H](C)O1 [Doxorubicin.HCl, doxorubicin hydrochloride]
